One data set deals with DNA in A2780 P cells. Description: Pt binding to DNA in cultured cells (ICP-MS), A2780 P. The class given is cell-based, human. Particulars: 4 hours of cell treatment; for DNA-bound Pt in A2780 P: 40 μM of Pt complexes. The procedure: (§1) Pt DNA binding of Pt complexes was measured in SW480 cells (colon cancer) and CH1 cells (lymphoma) or alternatively A2780 P and A2780 cisR cells (sensitive and resistant to cisplatin respectively). The cells were seeded in 60 mm tissue culture dishes with 10 ml of their respective medium. After overnight incubation the medium was removed and replaced with 10 ml of the respective medium containing a platinum complex giving a final concentration of 43 or 40 μM depending on the experiment. The cells were incubated with a given Pt complex for either 2 or 4 h depending on the experiment. The cells were trypsinised and centrifuged. The supernantant was removed and the cells washed twice with 1×PBS and centrifuged. The pellet was re-suspended in DNA buffer to which Proteinase K (20 mg/mL) and 10% SDS were added. After a gentle shake and incubation at 45° C. for two hours, RNAse (100 mg/mL) was added and the cells were incubated at 37° C. overnight. The volume of supernatant was noted and an equal volume of phenol was added.
(§2) The resulting mixture was shook for 10 min, then centrifuged for 10 min at 10° C. The supernatant was transferred into a new centrifuge tube (15 ml) and the volume was noted. To this was added an equal volume of phenol and chloroform/isoamylalcohol (24:1). The resulting mixture was shook for 10 min, then centrifuged for 10 min at 10° C. (3000 RPM). The supernatant was transferred into a new centrifuge tube (15 mL) and the volume was noted. To this was added an equal volume of chloroform. The resulting mixture was shook for 10 min, then centrifuged for 10 min at 10° C. The supernatant was transferred into a new centrifuge tube (15 mL) and the volume was noted. To this was added a volume that is 1/10 of the supernatant of 3 M sodium acetate (Ph 5.2) and three times the volume of cold 100% isopropanol (from freezer). The solution was shook gently until the DNA is precipitated. […] The absorbance of the DNA by was measured by UV spectrophotometry at 260 nm and 280 nm and the concentration of DNA calculated. Platinum bound to DNA was determined by ICP-MS.

Data set [1] concerns ovarian cancer cell line A2780 P. Description: MTS in vitro cytotoxicity, A2780 P. The format is cell-based, human. To be noted: 72 hours; for IC50: MTS. On the procedure:
(§3) Cells were cultured in the appropriate media. […] In order to retain resistance 1 μM cisplatin was added to the media of the A2780 cisR cells every third passage. A2780 cisR cells are resistant to cisplatin through a combination of decreased uptake, enhanced DNA repair/tolerance, and elevated reduced glutathione levels
(§4) All cells were kept in a humidified atmosphere with 5% CO2 at 37° C.; cells from confluent monolayers were removed from flasks by trypsin/EDTA solution and their viability determined by the trypan blue exclusion test.
(§5) Cell growth was determined by the [3-(4,5-dimethylthiazol-2-yl)-5-(3-carboxymethoxyphenyl)-2-(4-sulfophenyl)-2H-tetrazolium, inner salt, (MTS test, Promega, Southampton, UK), a colorimetric assay based on the ability of the viable cells to reduce a soluble yellow tetrazolium salt to blue formazan. 10,000 ovarian cancer cells or 3,000 fibroblast cells for example were seeded per well onto 96-well plates in 100 μl of the appropriate culture medium. 24 hr after sowing the cells, the media was removed and the cells were treated by adding 100 μl of the compound media solutions at the appropriate concentrations. cis-[Pt(NH3)2(malSAHA−2H)], cisplatin and cis-[Pt(NH3)2(mal)] were prepared freshly in cell culture media. […] The maximum percentage of dmso present in any well was less than 0.1% (v/v). cis-[Pt(NH3)2(malBel—2H)], belinostat and malbelinostat were freshly prepared in dimethyl formamide (DMF) and diluted in culture media prior to the MTS assay. The maximum percentage of DMF present in any well was 0.5% (v/v). A range of concentrations between 1 μM and 100 μM was used.
(§6) After 72 hr of treatment, 20 μl of the MTS reagent was added to each well and the plates incubated for 2 hr at 37° C. […] The percentages of surviving cells relative to untreated controls were determined.

For data set [2], the system named is A2780 P (ovarian cancer cells). Description: Cellular uptake of Pt (FAAS), A2780 P. The class given is cell-based, human. To be noted: for Uptake of Pt complexes into A2780 P: 10 μM. The procedure: Cellular uptake of Pt compounds was measured in SKBR, SW480, A549, A2780P and CH1 cells. […] The cell monolayers at the end of the incubation with the Pt complexes were washed (twice) with ice-cold phosphate buffered saline (PBS), trypsinized and harvested into cold (4° C.) PBS. Cell suspensions were centrifuged and the pellets were stored in PBS at −80° C. until assayed. Afterward, the pellets were digested by high pressure microwave mineralization and Pt content was determined by flameless atomic absorption spectrophotometry (FAAS). The results of cellular Pt uptake were corrected for adsorption effects. All experiments were made in triplicate.^17

The subject of data set [3] is cisplatin resistant ovarian cancer cell line A2780 cisR. Description: MTS in vitro cytotoxicity, A2780 cisR. The format is cell-based, human. Particulars: 72 hours; for IC50: MTS. The procedure:
as §3, §4, §5, §6

In data set [4] the test system is non-tumorigenic human dermal fibroblast cell line (NHDF). Description: MTS in vitro cytotoxicity, NHDF. The format is cell-based. Particulars: 72 hours; for IC50: MTS. The procedure:
In addition Normal Neonatal Human Dermal Fibroblast, NHDF, cells were cultured in Fibroblast Basal Medium (FBM®, Clonetics, Walkersville, USA) supplemented with hFGF-B, insulin, 5% FBS and gentamicin/amphotericin-B (FGM®-2 SingleQuots, Clonetics, Walkersville, USA).
as §4, §5, §6

The subject of data set [5] is DNA in SW480 cells (colon cancer). Description: Pt binding to DNA in cultured cells (ICP-MS), SW480. The format is cell-based. Particulars: 2 hours of cell treatment. The procedure:
as §1, §2

In data set [6] the test system is breast cancer cell line (SKBR). Description: MTS in vitro cytotoxicity, SKBR. The class given is cell-based. To be noted: 72 hours, Table 1, read-out: IC50 values against SKBR. The procedure:
as §4, §5, §6

Data set [7] relates to liver cell lines (Hep-G2). Description: MTS in vitro cytotoxicity, Hep-G2. The format is cell-based. Particulars: 72 hours, Table 1, read-out: IC50 values against Hep-G2. The procedure:
as §4, §5, §6

Where [8] appears, read: Table 5, read-out: IC50 (μM) ± S.E.M. against A2780P.
Where [9] appears, read: Table 5, read-out: IC50 (μM) ± S.E.M. against A2780CisR.
Where [10] appears, read: Table 5, read-out: IC50 (μM) ± S.E.M. against NHDF.
Setting [11] is: Table 1, read-out: IC50 values against A2780 P.
Setting [12] is: Table 1, read-out: IC50 values against A2780cisR.
[13] abbreviates: Table 1, read-out: IC50 values against NHDF.

Where two headings read alike, the source gives them in different places.

Broadly, the IC50 is the point on the concentration scale where inhibition reaches its midpoint. Take `[NH2][Pt]1([NH2])[O]C(=O)C(Cc2ccc(NS(=O)(=O)c3ccc(/C=C/C(=O)NO)cc3)cc2)C(=O)[O]1` [cis-[Pt(NH3)2(malBel−2H)], cis-[Pt(NH3)2(malBel−2H)].1.5H2O]: the “DNA-bound Pt in A2780 P” value in the data set on DNA in A2780 P cells is 5,175 · 10^−15 ± 27 moles of Pt/μg of DNA. The “DNA binding in A2780 P compared with cisplatin (in words)” value in the data set with DNA in A2780 P cells was “binds DNA in A2780 P and A2780 cisR cancer cells and to a greater extent than cisplatin”. For the same compound, the IC50 in data set [1] (setting [8]) turned out to be 7.6 ± 0.3 µM; in data set [3] (setting [9]) it was 11.7 ± 0.9 µM; in data set [4] (setting [10]), 33.9 ± 2 µM. Further, the “selectivity for A2780 P over normal cell line NHDF” value in data set [1] (cytotoxicity) is given as “displays selectivity for A2780 P cancer cell line over representative normal cell line NHDF”. Also, the “Uptake of Pt complexes into A2780 P” value in data set [2] (24 hours treatment) was found to be 154 ± 10 pmol Pt/2 × 10^6 cell. The “uptake by cancer cells (in words)” value in data set [2] (24 hours treatment, A2780 P and A2780 cisR) was “is taken up by cancer cells after 24 hours treatment”. In addition, the “activity against cisplatin resistant A2780 cisR (in words)” value in data set [3] (cytotoxicity) is reported as “retains activity against A2780 cisR cell line”.

For the compound `[NH2][Pt]1([NH2])[O]C(=O)C(Cc2ccc(NC(=O)CCCCCCC(=O)NO)cc2)C(=O)[O]1` [cis-[Pt(NH3)2(malSAHA−2H)], cis-[Pt(NH3)2(malSAHA−2H)].3H2O], in data set [5] (SW480 and CH1 cells), the “binding of Pt to DNA in cultured cells (in words)” value is recorded as “binds DNA in cultured cells after 2 hours of cell treatment”. Also, the 50% inhibitory concentration (IC50) amounted to 9.9 ± 1.8 µM in data set [6]; 9 ± 3.1 µM in data set [1] (setting [11]); 70 ± 3.5 µM in data set [3] (setting [12]); 83 ± 7.6 µM in data set [4] (setting [13]); 47.8 ± 4 µM in data set [7]. Further, the “Uptake of Pt complexes into A2780 P” value in data set [2] (72 hours treatment) is on record as 5535 ± 865 pmol Pt/2 × 10^6 cell. Further, the “selectivity for cancer cell lines over normal cell line NHDF” value in data set [4] (cytotoxicity) is “displays selectivity for cancer cell lines over representative normal cell line NHDF”.

With `N.N.[Cl][Pt][Cl]` [cisplatin, cis-[Pt^II(NH3)2Cl2], reference compound], the “DNA-bound Pt in SW480” value in data set [5] (43 μM of Pt complexes) was 38.5 · 10^−15 moles of Pt/μg of DNA. Further, the IC50 amounted to 7.5 ± 1.2 µM in data set [6]; 2.9 ± 0.1 µM in data set [1] (setting [11]); 1.3 ± 0.1 µM in data set [1] (setting [8]); 28.5 ± 1.5 µM in data set [3] (setting [12]); 9.8 ± 1 µM in data set [3] (setting [9]); 10 ± 1.8 µM in data set [4] (setting [13]). The IC50 in data set [4] (setting [10]) came out at 2.4 ± 0.6 µM; in data set [7], 39.8 ± 3.5 µM. The “DNA-bound Pt in A2780 P” value with DNA in A2780 P cells was 200 · 10^−15 ± 60 moles of Pt/μg of DNA. Moreover, the “Uptake of Pt complexes into A2780 P” value amounted to 290 ± 35 pmol Pt/2 × 10^6 cell in data set [2] (24 hours treatment) and 612.25 ± 107.75 pmol Pt/2 × 10^6 cell in data set [2] (72 hours treatment).

These data come from patent US8901337B2, “Metal complexes having dual histone deacetylase inhibitory and DNA-binding activity” (Royal College of Surgeons in Ireland, priority 2009, dated 2014).
